Assay results from ChEMBL document CHEMBL1125139, “Antitumor agents. 113. New 4 beta-arylamino derivatives of 4'-O-demethylepipodophyllotoxin and related compounds as potent inhibitors of human DNA topoisomerase II” (1990).

Key:
[1] = test system: Nucleic Acid; assay: Inhibition of cellular protein-DNA complex formation at 10 uM; format: functional; conditions: Homo sapiens
[2] = target: DNA topoisomerase II (Homo sapiens) (UniProt P11388+Q02880); assay: Inhibitory activity against human DNA topoisomerase II; format: protein assay
[3] = Concentration for 50% reduction in cell number after 3-day incubation; format: functional; conditions: Homo sapiens, 72 h; read-out: ID50 (the source's name)

Structure (SMILES) | Formation [1] | ID50 [2] | IC50 [3]
COc1cc([C@@H]2c3cc4c(cc3[C@@H](Nc3cc([N+](=O)[O-])ccc3O)[C@H]3COC(=O)[C@H]23)OCO4)cc(OC)c1O | 15% | > 100 µM | 1 µM
COc1cc([C@@H]2c3cc4c(cc3[C@@H](Nc3cccnc3)[C@H]3COC(=O)[C@H]23)OCO4)cc(OC)c1O | 148% | 50 µM | 0.24 µM
COc1cc([C@@H]2c3cc4c(cc3[C@@H](Nc3cccc([N+](=O)[O-])c3)[C@H]3COC(=O)[C@H]23)OCO4)cc(OC)c1O | 230% | 50 µM | 1 µM
COc1cc([C@@H]2c3cc4c(cc3[C@@H](Nc3ccc(C#N)cc3)[C@H]3COC(=O)[C@H]23)OCO4)cc(OC)c1O | 211% | 10 µM | 0.64 µM
COc1cc([C@@H]2c3cc4c(cc3[C@@H](Nc3ccc(N5CCOCC5)cc3)[C@H]3COC(=O)[C@H]23)OCO4)cc(OC)c1O | 140% | 10 µM | 0.66 µM
COc1cc([C@@H]2c3cc4c(cc3[C@@H](Nc3cccc(CO)c3)[C@H]3COC(=O)[C@H]23)OCO4)cc(OC)c1O | 235% | 25 µM | < 1 µM
COc1cc([C@@H]2c3cc4c(cc3[C@@H](Nc3ccc([N+](=O)[O-])cc3)[C@H]3COC(=O)[C@H]23)OCO4)cc(OC)c1O | 323% | 10 µM | 0.49 µM
COc1cc([C@@H]2c3cc4c(cc3[C@@H](Nc3ccccc3)[C@H]3COC(=O)[C@H]23)OCO4)cc(OC)c1O | 243% | 25 µM | 0.71 µM
COc1cc([C@@H]2c3cc4c(cc3[C@@H](Nc3cccc(O)c3)[C@H]3COC(=O)[C@H]23)OCO4)cc(OC)c1O | 290% | 25 µM | 0.45 µM
COc1cc([C@@H]2c3cc4c(cc3[C@@H](Oc3ccc(F)cc3)[C@H]3COC(=O)[C@H]23)OCO4)cc(OC)c1O | 57% | > 100 µM | 0.5 µM
COc1cc([C@@H]2c3cc4c(cc3[C@@H](Nc3ccc5c(c3)OCO5)[C@H]3COC(=O)[C@H]23)OCO4)cc(OC)c1O | 164% | 50 µM | < 1 µM
COc1ccc(N[C@@H]2c3cc4c(cc3[C@@H](c3cc(OC)c(O)c(OC)c3)[C@H]3C(=O)OC[C@@H]32)OCO4)cc1OC | 180% | 25 µM | < 1 µM
COc1cc([C@@H]2c3cc4c(cc3[C@@H](Nc3cc(OC)c(OC)c(OC)c3)[C@H]3COC(=O)[C@H]23)OCO4)cc(OC)c1O | 47% | > 100 µM | 0.63 µM
COC(=O)c1cccc(N[C@@H]2c3cc4c(cc3[C@@H](c3cc(OC)c(O)c(OC)c3)[C@H]3C(=O)OC[C@@H]32)OCO4)c1 | 249% | 50 µM | 2.7 µM
COc1cc([C@@H]2c3cc4c(cc3[C@@H](Nc3cccc(C(C)=O)c3)[C@H]3COC(=O)[C@H]23)OCO4)cc(OC)c1O | 150% | 50 µM | 1.7 µM
COc1cc([C@@H]2c3cc4c(cc3[C@@H](O[C@@H]3O[C@@H]5CO[C@@H](C)O[C@H]5[C@H](O)[C@H]3O)[C@H]3COC(=O)[C@H]23)OCO4)cc(OC)c1O [ETOPOSIDE] | 100% | – | 0.2 µM
COc1cc([C@@H]2c3cc4c(cc3[C@@H](Nc3ccc(F)cc3)[C@H]3COC(=O)[C@H]23)OCO4)cc(OC)c1O | 213% | 5 µM | 0.24 µM
COc1cc([C@@H]2c3cc4c(cc3[C@@H](Nc3ccc5c(c3)OCCO5)[C@H]3COC(=O)[C@H]23)OCO4)cc(OC)c1O | 279% | 10 µM | 0.68 µM

Structure (SMILES) | Formation [1] | ID50 [2] | IC50 [3]
COc1cc([C@@H]2c3cc4c(cc3[C@@H](Nc3ccc(N)cc3)[C@H]3COC(=O)[C@H]23)OCO4)cc(OC)c1O | 330% | 5 µM | 0.8 µM
COc1cc([C@@H]2c3cc4c(cc3[C@@H](Nc3cccc(N)c3)[C@H]3COC(=O)[C@H]23)OCO4)cc(OC)c1O | 140% | 25 µM | 4 µM
CCOC(=O)c1ccccc1N[C@@H]1c2cc3c(cc2[C@@H](c2cc(OC)c(O)c(OC)c2)[C@H]2C(=O)OC[C@@H]21)OCO3 | 4% | > 100 µM | 1 µM
COc1cc([C@@H]2c3cc4c(cc3[C@@H](Nc3cccc(C#N)c3)[C@H]3COC(=O)[C@H]23)OCO4)cc(OC)c1O | 137% | 25 µM | 0.69 µM
CCOC(=O)c1ccc(N[C@@H]2c3cc4c(cc3[C@@H](c3cc(OC)c(O)c(OC)c3)[C@H]3C(=O)OC[C@@H]32)OCO4)cc1 | 207% | 5 µM | 0.84 µM
COc1cc([C@@H]2c3cc4c(cc3[C@@H](Nc3cc(N)ccc3O)[C@H]3COC(=O)[C@H]23)OCO4)cc(OC)c1O | 11% | > 100 µM | 3.3 µM
COC(=O)c1cc(N[C@@H]2c3cc4c(cc3[C@@H](c3cc(OC)c(O)c(OC)c3)[C@H]3C(=O)OC[C@@H]32)OCO4)cc(C(=O)OC)c1 | 50% | 25 µM | < 1 µM
COc1cc([C@@H]2c3cc4c(cc3[C@@H](Nc3ccc(Oc5ccccc5)cc3)[C@H]3COC(=O)[C@H]23)OCO4)cc(OC)c1O | 97% | 25 µM | 1 µM
COc1cc([C@@H]2c3cc4c(cc3[C@@H](Nc3cnc5ccccc5c3)[C@H]3COC(=O)[C@H]23)OCO4)cc(OC)c1O | 123% | 50 µM | < 1 µM
COc1cc([C@@H]2c3cc4c(cc3[C@@H](Nc3ccccn3)[C@H]3COC(=O)[C@H]23)OCO4)cc(OC)c1O | 97% | 50 µM | 0.71 µM
COc1cc([C@@H]2c3cc4c(cc3[C@@H](Sc3ccc(O)cc3)[C@H]3COC(=O)[C@H]23)OCO4)cc(OC)c1O | 10% | > 100 µM | < 1 µM
COc1cc([C@@H]2c3cc4c(cc3[C@@H](Nc3cc(C(F)(F)F)cc(C(F)(F)F)c3)[C@H]3COC(=O)[C@H]23)OCO4)cc(OC)c1O | 21% | > 100 µM | 3.4 µM
COc1cc([C@@H]2c3cc4c(cc3[C@@H](Oc3ccc(O)cc3)[C@H]3COC(=O)[C@H]23)OCO4)cc(OC)c1O | 34% | 50 µM | < 1 µM
COC(=O)c1cc(N[C@@H]2c3cc4c(cc3[C@@H](c3cc(OC)c(O)c(OC)c3)[C@H]3C(=O)OC[C@@H]32)OCO4)ccc1O | 83% | 50 µM | 1 µM
COC(=O)c1ccc(N[C@@H]2c3cc4c(cc3[C@@H](c3cc(OC)c(O)c(OC)c3)[C@H]3C(=O)OC[C@@H]32)OCO4)cc1O | 129% | 50 µM | 5.8 µM
COc1cccc(N[C@@H]2c3cc4c(cc3[C@@H](c3cc(OC)c(O)c(OC)c3)[C@H]3C(=O)OC[C@@H]32)OCO4)c1 | 104% | 25 µM | 3.8 µM
COc1cc([C@@H]2c3cc4c(cc3[C@@H](NCCO)[C@H]3COC(=O)[C@H]23)OCO4)cc(OC)c1O | 121% | – | 1.6 µM
